In patent US20140228377A1, “METHYLPIPERIDINE DERIVATIVE” (TAISHO PHARMACEUTICAL CO., LTD., priority 2011, published 2014):
Read-outs that look alike come from different tables or passages of the source.

Experiments:
[1] = molecular target: T1, human orexin-1 receptor (hOX1R) (Homo sapiens, UniProt O43613); test: Orexin antagonistic activity assay (intracellular Ca2+, FDSS) in CHO cells expressing hOX1R; type: cell-based
T1 construct: expressed in transfected cells; host or cells: Chinese hamster ovary (CHO) cells
T1 sequence (O43613 1-425): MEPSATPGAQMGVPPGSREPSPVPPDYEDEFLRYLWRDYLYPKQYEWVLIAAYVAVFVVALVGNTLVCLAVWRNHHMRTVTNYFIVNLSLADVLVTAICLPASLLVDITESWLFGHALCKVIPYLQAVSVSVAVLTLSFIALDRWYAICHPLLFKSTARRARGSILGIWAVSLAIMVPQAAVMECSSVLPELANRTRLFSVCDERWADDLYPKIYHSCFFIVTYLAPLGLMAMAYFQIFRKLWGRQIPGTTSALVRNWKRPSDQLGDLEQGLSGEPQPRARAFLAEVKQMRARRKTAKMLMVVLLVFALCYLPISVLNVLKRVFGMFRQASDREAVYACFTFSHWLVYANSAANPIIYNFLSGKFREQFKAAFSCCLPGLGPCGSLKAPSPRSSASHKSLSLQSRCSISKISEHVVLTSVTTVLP
Method: (§1) The antagonistic activity of each test compound against human orexin-1 receptor (hOX1R) and orexin-2 receptor (hOX2R) was assayed by a modification of a method described in the literature (Toshikatsu Okumura et al., Biochemical and Biophysical Research Communications 280, 976-981, 2001). Chinese hamster ovary (CHO) cells forced to express hOX1R or hOX2R were inoculated at a density of 20,000 cells/well to a 96-well Black clear bottom plate (Nunc) and cultured at 37° C. for 16 hours under 5% CO2 conditions in a Ham's F-12 medium containing 0.1 mM MEM nonessential amino acids, 0.5 mg/ml G418, and 10% fetal bovine serum (all from Invitrogen Corp.). After removal of the medium, 100 μL of a buffer solution for assay (25 mM HEPES (Dojindo Laboratories), Hanks' balanced salt solution (Invitrogen Corp.), 0.1% bovine serum albumin, 2.5 mM probenecid, and 200 μg/ml Amaranth (all from Sigma-Aldrich Corp.), pH 7.4) containing 0.5 μM Fluo-3 AM ester (Dojindo Laboratories) was added to the cells, which were then incubated at 37° C. for 60 minutes under 5% CO2 conditions. After removal of the buffer solution for assay containing Fluo-3 AM ester, each test compound was dissolved at a concentration of 10 mM in dimethyl sulfoxide and diluted with a buffer solution for assay. Then, 150 μL of the solution was added to the cells, which were then incubated for 30 minutes.
(§2) A ligand peptide (Pyr-[…]NH2; Peptide Institute, Inc.) derived from human orexin-A by the substitution of two amino acids was diluted with a buffer solution for assay to final concentrations of 300 pM for hOX1R and 3 nM for hOX2R. Reaction was initiated by the addition of 50 μL of this ligand solution. The fluorescence intensity of the reaction was measured in each well every second for 3 minutes using Functional Drug Screening System (FDSS; manufactured by Hamamatsu Photonics K.K.), and the maximum fluorescence intensity was used as an index for intracellular Ca^2+ concentration to determine antagonistic activity. The antagonistic activity of the test compound was calculated with fluorescence intensity from a well supplemented with only a diluting buffer solution as 100% and fluorescence intensity from a well supplemented with a buffer solution free from the ligand and the compound as 0%. The 50% inhibitory concentration (IC50 value) was determined on the basis of fluorescence intensity derived from the test compound added at varying concentrations.

[2] = molecular target: T2, orexin-2 receptor (hOX2R) (Homo sapiens, UniProt O43614); test: Orexin antagonistic activity assay (intracellular Ca2+, FDSS) in CHO cells expressing hOX2R; type: cell-based
T2 construct: expressed in transfected cells; host or cells: Chinese hamster ovary (CHO) cells
T2 sequence (O43614 1-444): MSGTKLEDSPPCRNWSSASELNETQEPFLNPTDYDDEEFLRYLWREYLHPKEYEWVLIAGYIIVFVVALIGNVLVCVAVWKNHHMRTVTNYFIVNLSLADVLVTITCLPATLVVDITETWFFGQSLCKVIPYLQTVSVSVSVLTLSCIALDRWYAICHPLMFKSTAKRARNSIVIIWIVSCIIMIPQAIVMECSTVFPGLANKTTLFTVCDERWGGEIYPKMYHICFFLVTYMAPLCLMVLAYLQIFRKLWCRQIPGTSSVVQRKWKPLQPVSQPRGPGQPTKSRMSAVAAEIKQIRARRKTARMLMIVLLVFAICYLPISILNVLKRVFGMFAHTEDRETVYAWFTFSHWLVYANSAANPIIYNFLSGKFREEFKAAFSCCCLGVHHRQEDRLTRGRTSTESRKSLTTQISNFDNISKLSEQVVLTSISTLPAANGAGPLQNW
Method: as §1, §2

[3] = CHO cells expressing hOX1R, ligand peptide 300 pM, Fluo-3 maximum fluorescence intensity, read-out: IC50 value OX1
[4] = CHO cells expressing hOX2R, ligand peptide 3 nM, Fluo-3 maximum fluorescence intensity, read-out: IC50 value OX2

Compound | IC50 [1, 3] [nM] | IC50 [2, 4] [nM] | IC50 [1] [nM] | IC50 [2] [nM]
C[C@@H]1CC[C@@H](c2nc3cc(Cl)ccc3o2)CN1C(=O)c1cc(F)ccc1-n1nccn1 (single isomer, unassigned) [Example 2, [(2R*,5R*)-5-(5-Chloro-1,3-benzoxazol-2-yl)-2-methylpiperidin-1-yl][5-fluoro-2-(2H-1,2,3-triazol-2-yl)phenyl]methanone] | 19.8 | 8.7 |  | 
C[C@@H]1CC[C@@H](c2nc3cc(Cl)ccc3o2)CN1C(=O)c1ccccc1-n1nccn1 (single isomer, unassigned) [Example 3, [(2R*,5R*)-5-(5-Chloro-1,3-benzoxazol-2-yl)-2-methylpiperidin-1-yl][2-(2H-1,2,3-triazol-2-yl)phenyl]methanone] | 18.1 | 4.1 |  | 
Cc1ccc(-c2ncccn2)c(C(=O)N2CC(c3nc4cc(Cl)ccc4o3)CC[C@H]2C)n1 (single isomer, unassigned) [Example 4, [(2R*,5R*)-5-(5-Chloro-1,3-benzoxazol-2-yl)-2-methylpiperidin-1-yl][6-methyl-3-(pyrimidin-2-yl)pyridin-2-yl]methanone] | 4.3 | 17.2 |  | 
Cc1ccc(-c2ncccn2)c(C(=O)N2C[C@H](c3nc4cc(Cl)ccc4o3)CC[C@H]2C)c1 (single isomer, unassigned) [Example 5, [(2R*,5R*)-5-(5-Chloro-1,3-benzoxazol-2-yl)-2-methylpiperidin-1-yl][5-methyl-2-(pyrimidin-2-yl)phenyl]methanone] | 3.1 | 4.3 |  | 
C[C@@H]1CC[C@@H](c2nc3cc(Cl)ccc3o2)CN1C(=O)c1cc(F)ccc1-c1ncccn1 (single isomer, unassigned) [Example 6, [(2R*,5R*)-5-(5-Chloro-1,3-benzoxazol-2-yl)-2-methylpiperidin-1-yl][5-fluoro-2-(pyrimidin-2-yl)phenyl]methanone] | 54.5 | 2.9 |  | 
C[C@@H]1CC[C@@H](c2nc3cc(Cl)ccc3o2)CN1C(=O)c1ccccc1-c1ncccn1 (single isomer, unassigned) [Example 7, [(2R*,5R*)-5-(5-Chloro-1,3-benzoxazol-2-yl)-2-methylpiperidin-1-yl][2-(pyrimidin-2-yl)phenyl]methanone] | 49.5 | 2 |  | 
Cc1ccc(-c2ncccn2)c(C(=O)N2C[C@H](c3nc4cc(F)ccc4o3)CC[C@H]2C)c1 (single isomer, unassigned) [Example 8, [(2R*,5R*)-5-(5-Fluoro-1,3-benzoxazol-2-yl)-2-methylpiperidin-1-yl][5-methyl-2-(pyrimidin-2-yl)phenyl]methanone] | 0.7 | 2.1 |  | 
Cc1ccc(-n2nccn2)c(C(=O)N2C[C@H](c3nc4cc(Cl)ccc4o3)CC[C@H]2C)c1 (single isomer, unassigned) [Example 9, [(2R*,5R*)-5-(5-Chloro-1,3-benzoxazol-2-yl)-2-methylpiperidin-1-yl][5-methyl-2-(2H-1,2,3-triazol-2-yl)phenyl]methanone] |  |  | 1.2 | 1.8
Cc1ccc(-n2nccn2)c(C(=O)N2C[C@H](c3nc4cc(F)ccc4o3)CC[C@H]2C)c1 (single isomer, unassigned) [Example 10, [(2R*,5R*)-5-(5-Fluoro-1,3-benzoxazol-2-yl)-2-methylpiperidin-1-yl][5-methyl-2-(2H-1,2,3-triazol-2-yl)phenyl]methanone] | 4.8 | 4.9 |  | 
Cc1ccc(-n2nccn2)c(C(=O)N2C[C@H](c3nc4cc(F)ccc4o3)CC[C@H]2C)n1 (single isomer, unassigned) [Example 11, [(2R*,5R*)-5-(5-Fluoro-1,3-benzoxazol-2-yl)-2-methylpiperidin-1-yl][6-methyl-3-(2H-1,2,3-triazol-2-yl)pyridin-2-yl]methanone] | 42.1 | 43.7 |  | 
Cc1ccc(-n2nccn2)c(C(=O)N2C[C@H](c3nc4ccc(F)cc4o3)CC[C@H]2C)n1 (single isomer, unassigned) [Example 12, [(2R*,5R*)-5-(6-Fluoro-1,3-benzoxazol-2-yl)-2-methylpiperidin-1-yl][6-methyl-3-(2H-1,2,3-triazol-2-yl)pyridin-2-yl]methanone] | 111 | 105 |  | 
C[C@@H]1CC[C@@H](c2nc3cc(Cl)ccc3o2)CN1C(=O)c1cc(Cl)ccc1-c1ncccn1 [Example 13, [(2R,5R)-5-(5-Chloro-1,3-benzoxazol-2-yl)-2-methylpiperidin-1-yl][5-chloro-2-(pyrimidin-2-yl)phenyl]methanone] | 4.4 | 13 |  | 
C[C@@H]1CC[C@@H](c2nc3cc(Cl)ccc3o2)CN1C(=O)c1ccc(F)cc1-n1nccn1 [Example 14, [(2R,5R)-5-(5-Chloro-1,3-benzoxazol-2-yl)-2-methylpiperidin-1-yl][4-fluoro-2-(2H-1,2,3-triazol-2-yl)phenyl]methanone] | 41.6 | 8.8 |  | 
C[C@@H]1CC[C@@H](c2nc3cc(Cl)ccc3o2)CN1C(=O)c1cccc(F)c1-n1nccn1 [Example 15, [(2R,5R)-5-(5-Chloro-1,3-benzoxazol-2-yl)-2-methylpiperidin-1-yl][3-fluoro-2-(2H-1,2,3-triazol-2-yl)phenyl]methanone] | 142 | 9.7 |  | 
C[C@@H]1CC[C@@H](c2nc3cc(Cl)ccc3o2)CN1C(=O)c1c(F)cccc1-n1nccn1 [Example 16, [(2R5R)-5-(5-Chloro-1,3-benzoxazol-2-yl)-2-methylpiperidin-1-yl][2-fluoro-6-(2H-1,2,3-triazol-2-yl)phenyl]methanone] | 25.6 | 3.6 |  | 
C[C@@H]1CC[C@@H](c2nc3cc(Cl)ccc3o2)CN1C(=O)c1ccc(F)cc1-c1ncccn1 [Example 17, [(2R,5R)-5-(5-Chloro-1,3-benzoxazol-2-yl)-2-methylpiperidin-1-yl][4-fluoro-2-(pyrimidin-2-yl)phenyl]methanone] | 54.5 | 10.3 |  | 
C[C@@H]1CC[C@@H](c2nc3cc(Cl)ccc3o2)CN1C(=O)c1cccc(F)c1-c1ncccn1 [Example 18, [(2R,5R)-5-(5-Chloro-1,3-benzoxazol-2-yl)-2-methylpiperidin-1-yl][3-fluoro-2-(pyrimidin-2-yl)phenyl]methanone] | 301 | 59.5 |  | 
C[C@@H]1CC[C@@H](c2nc3cc(Cl)ccc3o2)CN1C(=O)c1c(F)cccc1-c1ncccn1 [Example 19, [(2R,5R)-5-(5-Chloro-1,3-benzoxazol-2-yl)-2-methylpiperidin-1-yl][2-fluoro-6-(pyrimidin-2-yl)phenyl]methanone] | 83.7 | 9.3 |  | 
C[C@@H]1CC[C@@H](c2nc3cc(Cl)ccc3o2)CN1C(=O)c1cc(C(F)(F)F)ccc1-n1nccn1 [Example 20, [(2R,5R)-5-(5-Chloro-1,3-benzoxazol-2-yl)-2-methylpiperidin-1-yl][2-(2H-1,2,3-triazol-2-yl)-5-(trifluoromethyl)phenyl]methanone] | 108 | 55.7 |  | 
C[C@@H]1CC[C@@H](c2nc3cc(Cl)ccc3o2)CN1C(=O)c1cc(C#N)ccc1-n1nccn1 [Example 21] | 211 | 155 |  | 
